Reference: patent publication US9080144B2, “Compositions and methods for promoting liposomal and cellular adhesion” (priority 2012, dated 2015)
“Also recorded” adds a separate entry of the source.

Legend:
fibroblasts (fbs) [1] = assay: Fluorescence labeling optimization of DOTAP concentration for liposome-cell fusion; type: cell-based; conditions: keto-LUVs with 0.5-5% DOTAP, 5% ketone; fbs 4 h; rhod-oxyamine 0.7 mM 2 h
Procedure: Cell-surface labeling. In an embodiment of the present application, oxime chemistry is used to tailor and fluorescently label cell surfaces via a novel liposome fusion strategy. As mentioned, cationic lipid, DOTAP, was incorporated within keto- and oxyamine-LUVs to initiate electrostatic destabilization and subsequent fusion to the cell membrane. As such, the minimum DOTAP concentration required to facilitate liposome-cell fusion was determined to be […] through fluorescence labeling optimization. Keto-LUVs were generated using DOTAP and POPC concentrations that ranged from 0.5% to 5% and 90% to 94.5%, respectively, while maintaining a 5-% ketone concentration. These liposomes were incubated with fibroblasts (fbs) for 4 h, conjugated with an oxyamine-tethered rhodamine (rhod-oxyamine, 8) (0.7 mM, 2 h), and the cell fluorescence intensities were then compared. […] The liposomes for liposome-cell fusion events were approximately ˜60 nm in diameter, similar to those used for the liposome-liposome fusion characterization.

fibroblasts (fbs) [2] = assay: Cell-surface engineering: fluorescent labeling of fbs by liposome fusion and oxime conjugation; type: cell-based, mouse; conditions: liposome fusion 2 h plus complementary oxime dye
Procedure: Two cell-surface engineering methods were employed to fluorescently label fbs. In this first method, a solution of oxyamine vc-LUVs (6, 3 mM) was incubated with a ketone-functionalized fluorescein (7, 0.15 mM, 1 eq, 2 h), forming fluorescently labeled liposomes. The liposomes were then added to fbs in culture for 2 h. After fusion, the cells were washed with PBS (3×2 mL), trypsinized (1 mL, 5 min, 37° C., 5% CO2), diluted with CBS-containing media (˜10^2/mL), and seeded to a glass substrate (1×1 cm^2, 2 h). The cells were then imaged under a fluorescence microscope with an exposure time of 1/1200 s. In the second method, a solution of keto-LUVs (5, 200 μL, 0.6 mM) was added to fbs in culture for 2 h, resulting in membrane fusion and subsequent display of ketones from the cell surface (9). Rhod-oxyamine (8, 100 μL, 0.7 mM in H2O) was then added the cells for 2 h. After oxime formation, the fbs were washed with PBS (3×2 mL), trypsinized (1 mL, 5 min, 37° C., 5% CO2), diluted with CBS-containing media (˜10^2/mL), and seeded to a glass substrate (1×1 cm^2, 2 h). The cells were then imaged under a fluorescence microscope with an exposure time of 1/1200 s (see FIG. 3).

Row | Structure (SMILES) | minimum DOTAP concentration required to facilitate liposome-cell fusion (fibroblasts (fbs) [1]) [%] | fluorescent labeling of fbs (microscopy) (fibroblasts (fbs) [2])
1 | CCCCCCCC/C=C\CCCCCCCC(=O)OCC(C[N+](C)(C)C)OC(=O)CCCCCCC/C=C\CCCCCCCC (centres unmarked) [DOTAP, 1,2-dioleoyl-3-trimethylammonium-propane] | 2 | –
2 | CCN(CC)c1ccc2c(-c3ccc(S(=O)(=O)NCCCCNC(=O)CON)cc3S(=O)(=O)[O-])c3ccc(=[N+](CC)CC)cc-3oc2c1 [compound 8, 5-(N-(4-(2-(aminooxy)acetamido)butyl)sulfamoyl)-2-(6-(diethylamino)-3-(diethyliminio)-3H-xanthen-9-yl)benzenesulfonate] | – | fluorescence labeling of cells; also recorded: red fluorescent labeling of the cells
